Experimental data taken from US9596859B2, “Emulsifiable concentrate for a phytosanitary composition, phytosanitary composition and phytosanitary film” (Total Marketing Services, priority 2009, dated 2017).

Test system: Aonidiella aurantii
Assay: Insecticidal efficacy of emulsions sprayed on citrus groves (oranges)
Settings: concentration 0.151/hl
Description: Samples of products to be tested on citrus groves (oranges) are prepared. The reference R corresponds to an untreated citrus plot.
Emulsions according to the invention are used, obtained from X6, at 3% in a mixture of hydrocarbons as described in Example 1 for forming the concentrate. This concentrate is mixed at concentrations of 1 and 2% in water, then emulsified. The citrus groves are sprayed at a rate of 1200 L/ha. The efficacy of these emulsions is compared to that of an emulsion of the prior art T1, as described hereinafter and to a chemical reference product corresponding to the use of a synthetic pesticide, here Chlorpyrifos, reference T2.
For the emulsion T1, the concentrate is prepared using 1.4% ethoxylated C12-C14 alcohol and 1.6% ethoxylated C13 alcohol acid phosphate in the same mixture of hydrocarbons. As previously, this concentrate is mixed at concentrations of 1 and 2% in water then emulsified. The resulting emulsions are applied in an identical manner onto citrus.
The efficacy of these emulsions in preventing harmful insect activity is then evaluated, by comparison with the reference products and the prior art. To this end, a count is undertaken of the number of insects present at the time of application of the emulsions on the reference, and the number of insects having withstood the treatment after 20 days. The efficacy is measured according to the Abbott formula based on the number of live insects, the number of dead insects and the % of citrus infected (more than 3 insects per fruit).

**Q.** How did the “% Efficacy (Based on mortality)” value (Abbott formula, t + 20 days) turn out when `CCOP(=S)(OCC)Oc1nc(Cl)c(Cl)cc1Cl` [Concentrate T2, Chlorpyrifos] was run?
**A.** Its value is 83.3%.

**Q.** And the “% Efficacy (Based on the number of live individuals)” value (Abbott formula, t + 20 days)?
**A.** The value was 89.9%.

**Q.** And the “% mortality” value (t + 20 days, citrus)?
**A.** Its value is 88.0%.

**Q.** What about the “Number of dead individuals” value (t + 20 days, citrus) of the same molecule?
**A.** The value was 172.0.

**Q.** What about the “Number of live individuals” value (t + 20 days, citrus) of the same molecule?
**A.** Its value is 23.5.

**Q.** What about the “% fruits infected” value (t + 20 days, infected = more than 3 insects per fruit) of the same molecule?
**A.** Its value is 7.8%.

**Q.** And the “Number of live individuals” value (t = 0 (at application), citrus)?
**A.** The value was 216.5.
